Values after ≈ are worked out from the molar mass of the structure shown. Read-outs that look alike come from different tables or passages of the source.
Key:
Format in all cases: cell-based
[1] = tested on: Pseudomonas aeruginosa
Summary of the method: (§1)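 Each compound was tested against a panel of up to nine strains per Gram-negative species. The panel included strains that show elevated MICs to Polymyxin. Activity was recorded as MIC in μg/mL.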

[2] = tested on: Acinetobacter baumannii
Summary of the method: as §1

[3] = tested on: Klebsiella pneumoniae
Summary of the method: as §1

[4] = tested on: Escherichia coli
Summary of the method: as §1

SMILES	MIC P. aeruginosa ATCC 27853 [1] [µg/mL]	MIC P. aeruginosa CCUG 59347 [1] [µg/mL]	MIC A. baumanii ATCC BAA-747 [2] [µg/mL]	MIC A. baumanii NCTC 13424 [2] [µg/mL]	MIC K. pneumoniae 065 [3] [µg/mL]	MIC K. pneumoniae ATCC 13882 [3] [µg/mL]	MIC E. coli 058 [4] [µg/mL]	MIC E. coli ATCC 25922 [4] [µg/mL]	MIC P. aeruginosa 068 [1] [µg/mL]	MIC P. aeruginosa 070 [1] [µg/mL]	MIC A. baumanii 053 [2] [µg/mL]	MIC A. baumanii 056 [2] [µg/mL]	MIC K. pneumoniae 063 [3] [µg/mL]	MIC E. coli 061 [4] [µg/mL]	MIC E. coli NCTC 9001 [4] [µg/mL]	further results
CC(C)C[C@@H]1NC(=O)[C@@H](CC2CCCCC2)NC(=O)[C@H](CCN)NC(=O)[C@@H](NC(=O)[C@H](CN)NC(=O)[C@@H](NC(=O)CC(CN)c2ccc(Cl)cc2)C(C)O)CCNC(=O)[C@H]([C@@H](C)O)NC(=O)[C@H](CCN)NC(=O)[C@H](CCN)NC1=O (single isomer, unassigned; isomer 2) [Example 51, 4-amino-3-(4-chlorophenyl) butanoyl L-Thr-L-Dap-polymyxin [D-cyclohexylalanine]-6 heptapeptide. Isomer 2]	0.5 (≈ 0.434 µM)	0.5 (≈ 0.434 µM)	0.5 (≈ 0.434 µM)	0.25 (≈ 0.217 µM)	0.25 (≈ 0.217 µM)	0.5 (≈ 0.434 µM)	2 (≈ 1.74 µM)	0.5 (≈ 0.434 µM)	–	–	–	–	–	–	–	–
CC(C)C[C@@H]1NC(=O)[C@@H](CC2CCCCC2)NC(=O)[C@H](CCN)NC(=O)[C@@H](NC(=O)[C@H](CCN)NC(=O)[C@@H](NC(=O)C(CN)Cc2ccccc2)C(C)O)CCNC(=O)[C@H]([C@@H](C)O)NC(=O)[C@H](CCN)NC(=O)[C@H](CCN)NC1=O (single isomer, unassigned; isomer 2) [Example 53, 3-amino-2-benzylpropanoyl polymyxin [D-cyclohexylalanine]-6 nonapeptide. Isomer 2]	0.25 (≈ 0.221 µM)	0.5 (≈ 0.442 µM)	0.5 (≈ 0.442 µM)	0.5 (≈ 0.442 µM)	4 (≈ 3.54 µM)	0.25 (≈ 0.221 µM)	4 (≈ 3.54 µM)	0.25 (≈ 0.221 µM)	8 (≈ 7.08 µM)	8 (≈ 7.08 µM)	64 (≈ 56.6 µM)	64 (≈ 56.6 µM)	64 (≈ 56.6 µM)	32 (≈ 28.3 µM)	0.125 (≈ 0.111 µM)	–
CC(C)C[C@@H]1NC(=O)[C@@H](CC2CCCCC2)NC(=O)[C@H](CCN)NC(=O)[C@@H](NC(=O)[C@H](CCN)NC(=O)[C@@H](NC(=O)C(CCN)c2ccc(F)cc2)C(C)O)CCNC(=O)[C@H]([C@@H](C)O)NC(=O)[C@H](CCN)NC(=O)[C@H](CCN)NC1=O (single isomer, unassigned; isomer 2) [Example 54, 4-amino-2-(4-fluorophenyl) butanoyl polymyxin [D-cyclohexylalanine]-6 nonapeptide isomer 2]	0.25 (≈ 0.218 µM)	0.5 (≈ 0.435 µM)	0.125 (≈ 0.109 µM)	0.25 (≈ 0.218 µM)	1 (≈ 0.871 µM)	0.25 (≈ 0.218 µM)	4 (≈ 3.48 µM)	0.125 (≈ 0.109 µM)	4 (≈ 3.48 µM)	4 (≈ 3.48 µM)	32 (≈ 27.9 µM)	8 (≈ 6.97 µM)	32 (≈ 27.9 µM)	16 (≈ 13.9 µM)	0.06 (≈ 0.0522 µM)	–
CC(C)C[C@@H]1NC(=O)[C@@H](CC2CCCCC2)NC(=O)[C@H](CCN)NC(=O)[C@@H](NC(=O)[C@H](CCN)NC(=O)[C@@H](NC(=O)C(CCN)c2cccc(Cl)c2)[C@@H](C)O)CCNC(=O)[C@H]([C@@H](C)O)NC(=O)[C@H](CCN)NC(=O)[C@H](CCN)NC1=O (single isomer, unassigned; isomer 2) [Example 55, 4-amino-2-(3-chlorophenyl) butanoyl polymyxin [D-cyclohexylalanine]-6 nonapeptide. isomer 2]	0.125 (≈ 0.107 µM)	0.5 (≈ 0.429 µM)	0.125 (≈ 0.107 µM)	0.25 (≈ 0.215 µM)	1 (≈ 0.858 µM)	0.25 (≈ 0.215 µM)	2 (≈ 1.72 µM)	0.25 (≈ 0.215 µM)	4 (≈ 3.43 µM)	4 (≈ 3.43 µM)	8 (≈ 6.87 µM)	4 (≈ 3.43 µM)	16 (≈ 13.7 µM)	16 (≈ 13.7 µM)	0.06 (≈ 0.0515 µM)	–
CC(C)C[C@@H]1NC(=O)[C@@H](CC2CCCCC2)NC(=O)[C@H](CCN)NC(=O)[C@@H](NC(=O)[C@H](CCN)NC(=O)[C@@H](NC(=O)CC(CN)c2ccccc2)[C@@H](C)O)CCNC(=O)[C@H]([C@@H](C)O)NC(=O)[C@H](CCN)NC(=O)[C@H](CCN)NC1=O (single isomer, unassigned; isomer 2) [Example 57, 4-amino-3-phenylbutanoyl polymyxin [D-cyclohexylalanine]-6 nonapeptide isomer 2]	–	–	–	–	–	–	–	–	–	–	–	–	–	–	–	MIC P. aeruginosa ATCC 27853 ([1]; strain ATCC 27853): 0.25 µg/mL (≈ 0.221 µM); MIC P. aeruginosa CCUG 59347 ([1]; strain CCUG 59347): 0.5 µg/mL (≈ 0.442 µM); MIC A. baumanii ATCC BAA-747 ([2]; strain ATCC BAA-747): 1 µg/mL (≈ 0.885 µM); MIC A. baumanii NCTC 13424 ([2]; strain NCTC 13424): 1 µg/mL (≈ 0.885 µM); MIC K. pneumoniae 065 ([3]; strain 065): 8 µg/mL (≈ 7.08 µM); MIC K. pneumoniae ATCC 13882 ([3]; strain ATCC 13882): 0.25 µg/mL (≈ 0.221 µM); MIC E. coli 058 ([4]; strain 058): 16 µg/mL (≈ 14.2 µM); MIC E. coli ATCC 25922 ([4]; strain ATCC 25922): 0.25 µg/mL (≈ 0.221 µM)
CC(C)C[C@@H]1NC(=O)[C@@H](CC2CCCCC2)NC(=O)[C@H](CCN)NC(=O)[C@@H](NC(=O)[C@H](CN)NC(=O)[C@@H](NC(=O)CC(CN)Cc2ccccc2)[C@@H](C)O)CCNC(=O)[C@H]([C@@H](C)O)NC(=O)[C@H](CCN)NC(=O)[C@H](CCN)NC1=O (single isomer, unassigned; isomer 2) [Example 59, 4-amino-3-benzylbutanoyl L-Thr-L-Dap-polymyxin [D-cyclohexylalanine]-6 heptapeptide. Isomer 2]	–	–	–	–	–	–	–	–	–	–	–	–	–	–	–	MIC P. aeruginosa 068 ([1]; strain 068): 4 µg/mL (≈ 3.54 µM); MIC P. aeruginosa 070 ([1]; strain 070): 8 µg/mL (≈ 7.08 µM); MIC P. aeruginosa ATCC 27853 ([1]; strain ATCC 27853): 0.25 µg/mL (≈ 0.221 µM); MIC P. aeruginosa CCUG 59347 ([1]; strain CCUG 59347): 0.25 µg/mL (≈ 0.221 µM); MIC A. baumanii 053 ([2]; strain 053): 32 µg/mL (≈ 28.3 µM); MIC A. baumanii 056 ([2]; strain 056): 16 µg/mL (≈ 14.2 µM); MIC A. baumanii ATCC BAA-747 ([2]; strain ATCC BAA-747): 0.03 µg/mL (≈ 0.0265 µM); MIC A. baumanii NCTC 13424 ([2]; strain NCTC 13424): 0.06 µg/mL (≈ 0.0531 µM); MIC K. pneumoniae 063 ([3]; strain 063): 32 µg/mL (≈ 28.3 µM); MIC K. pneumoniae 065 ([3]; strain 065): 2 µg/mL (≈ 1.77 µM); MIC K. pneumoniae ATCC 4352 ([3]; strain ATCC 4352): 0.125 µg/mL (≈ 0.111 µM); MIC K. pneumoniae ATCC 13882 ([3]; strain ATCC 13882): 0.25 µg/mL (≈ 0.221 µM); MIC E. coli 058 ([4]; strain 058): 2 µg/mL (≈ 1.77 µM); MIC E. coli ATCC 25922 ([4]; strain ATCC 25922): 0.125 µg/mL (≈ 0.111 µM); MIC E. coli NCTC 9001 ([4]; strain NCTC 9001): 0.06 µg/mL (≈ 0.0531 µM)
CC(C)C[C@@H]1NC(=O)[C@@H](CC2CCCCC2)NC(=O)[C@H](CCN)NC(=O)[C@@H](NC(=O)[C@H](CN)NC(=O)[C@@H](NC(=O)CCC(N)c2ccccc2)[C@@H](C)O)CCNC(=O)[C@H]([C@@H](C)O)NC(=O)[C@H](CCN)NC(=O)[C@H](CCN)NC1=O (single isomer, unassigned; isomer 2) [Example 61, 4-amino-4-phenylbutanoyl L-Thr-L-Dap-polymyxin [D-cyclohexylalanine]-6 heptapeptide. Isomer 2]	0.25 (≈ 0.224 µM)	0.5 (≈ 0.448 µM)	0.25 (≈ 0.224 µM)	0.25 (≈ 0.224 µM)	32 (≈ 28.7 µM)	0.25 (≈ 0.224 µM)	8 (≈ 7.17 µM)	0.25 (≈ 0.224 µM)	–	–	–	–	–	–	–	–
CC(C)C[C@@H]1NC(=O)[C@@H](CC2CCCCC2)NC(=O)[C@H](CCN)NC(=O)[C@@H](NC(=O)[C@H](CCN)NC(=O)[C@@H](NC(=O)C(CCN)c2ccccc2)[C@@H](C)O)CCNC(=O)[C@H]([C@@H](C)O)NC(=O)[C@H](CCN)NC(=O)[C@H](CCN)NC1=O (single isomer, unassigned; isomer 2) [Example 64, 4-amino-2-phenylbutanoyl polymyxin [D-cyclohexylalanine]-6 nonapeptide isomer 2]	0.25 (≈ 0.221 µM)	0.25 (≈ 0.221 µM)	0.125 (≈ 0.111 µM)	0.25 (≈ 0.221 µM)	4 (≈ 3.54 µM)	0.25 (≈ 0.221 µM)	8 (≈ 7.08 µM)	0.125 (≈ 0.111 µM)	8 (≈ 7.08 µM)	16 (≈ 14.2 µM)	32 (≈ 28.3 µM)	32 (≈ 28.3 µM)	64 (≈ 56.6 µM)	32 (≈ 28.3 µM)	–	–

— patent publication US12146004B2, “Polymyxin compounds and uses thereof” (priority 2014, dated 2024)
